Measurements taken from US9834518B2, “Compounds for inhibiting cell proliferation in EGFR-driven cancers” (ARIAD Pharmaceuticals, Inc., priority 2011, dated 2017).

Experiments:
BAF3 PARENTAL = assay: Cell proliferation (MTT), BAF3 parental; type: cell-based; settings: Mus musculus
Experimental: (§1) We also assessed the antiproliferative activity of compounds of Formula (I) against BaF3 cells expressing the target EGFR mutations or control (i.e., cell lines expressing wildtype EGFR). Assays were conducted using MTT.

[1] = target: EGFR bearing the L858R/T790M double mutation (Homo sapiens, UniProt P00533, L858R/T790M); assay: Kinase inhibition, EGFR L858R/T790M; type: biochemical; settings: 10 μM ATP; 10 pt curves, 3 μM top concentration (singlicates)
Chain of EGFR bearing the L858R/T790M double mutation (P00533 25-1210 T790M/L858R): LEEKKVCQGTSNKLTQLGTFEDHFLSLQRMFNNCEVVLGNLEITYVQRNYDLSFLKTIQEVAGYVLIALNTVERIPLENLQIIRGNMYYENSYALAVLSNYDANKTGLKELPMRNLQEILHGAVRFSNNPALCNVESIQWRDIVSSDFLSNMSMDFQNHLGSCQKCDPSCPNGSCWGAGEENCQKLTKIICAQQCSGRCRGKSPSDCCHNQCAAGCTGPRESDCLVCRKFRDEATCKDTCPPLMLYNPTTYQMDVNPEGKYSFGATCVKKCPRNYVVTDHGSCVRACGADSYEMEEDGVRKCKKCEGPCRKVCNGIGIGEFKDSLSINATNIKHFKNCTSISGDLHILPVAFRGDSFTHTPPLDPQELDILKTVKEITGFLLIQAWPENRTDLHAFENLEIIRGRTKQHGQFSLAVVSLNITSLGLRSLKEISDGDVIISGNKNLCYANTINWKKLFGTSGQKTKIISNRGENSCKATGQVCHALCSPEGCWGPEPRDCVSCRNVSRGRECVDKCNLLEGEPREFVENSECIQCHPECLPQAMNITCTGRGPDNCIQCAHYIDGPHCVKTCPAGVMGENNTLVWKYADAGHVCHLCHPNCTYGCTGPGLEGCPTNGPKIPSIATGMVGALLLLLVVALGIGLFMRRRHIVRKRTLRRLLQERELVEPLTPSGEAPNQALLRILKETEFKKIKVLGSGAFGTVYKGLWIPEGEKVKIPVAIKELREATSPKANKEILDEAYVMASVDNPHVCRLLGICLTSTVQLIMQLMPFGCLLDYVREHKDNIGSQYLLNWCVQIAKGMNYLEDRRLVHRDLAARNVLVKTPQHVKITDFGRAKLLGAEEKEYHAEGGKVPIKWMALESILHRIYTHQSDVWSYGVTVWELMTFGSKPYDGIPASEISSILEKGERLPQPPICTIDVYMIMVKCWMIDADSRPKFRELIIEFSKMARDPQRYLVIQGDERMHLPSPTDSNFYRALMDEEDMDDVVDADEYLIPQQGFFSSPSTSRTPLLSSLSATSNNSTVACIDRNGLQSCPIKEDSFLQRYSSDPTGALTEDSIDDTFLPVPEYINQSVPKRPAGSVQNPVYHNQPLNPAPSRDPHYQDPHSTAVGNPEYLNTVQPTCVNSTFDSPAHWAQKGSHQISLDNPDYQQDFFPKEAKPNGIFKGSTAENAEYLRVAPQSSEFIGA
Experimental: (§2) Kinase inhibitory activity of the compounds was measured against human EGFR (native sequence) and against EGFR bearing the L858R mution and the L858R/T790M double mutation (EGFR, L858R, and L858R/T790M, respectively in Table 1). Additional assays can be conducted with EGFR deletion mutants such as delE746-A750 with or without the additional T790M mutation. Assay conditions included 10 pt curves with 3 μM top concentration (singlicates) and 10 μM ATP.

[2] = target: human EGFR (native sequence) (Homo sapiens, UniProt P00533); assay: Kinase inhibition, human EGFR (native sequence); type: biochemical; settings: 10 μM ATP; 10 pt curves, 3 μM top concentration (singlicates)
Chain of human EGFR (native sequence) (P00533 25-1210): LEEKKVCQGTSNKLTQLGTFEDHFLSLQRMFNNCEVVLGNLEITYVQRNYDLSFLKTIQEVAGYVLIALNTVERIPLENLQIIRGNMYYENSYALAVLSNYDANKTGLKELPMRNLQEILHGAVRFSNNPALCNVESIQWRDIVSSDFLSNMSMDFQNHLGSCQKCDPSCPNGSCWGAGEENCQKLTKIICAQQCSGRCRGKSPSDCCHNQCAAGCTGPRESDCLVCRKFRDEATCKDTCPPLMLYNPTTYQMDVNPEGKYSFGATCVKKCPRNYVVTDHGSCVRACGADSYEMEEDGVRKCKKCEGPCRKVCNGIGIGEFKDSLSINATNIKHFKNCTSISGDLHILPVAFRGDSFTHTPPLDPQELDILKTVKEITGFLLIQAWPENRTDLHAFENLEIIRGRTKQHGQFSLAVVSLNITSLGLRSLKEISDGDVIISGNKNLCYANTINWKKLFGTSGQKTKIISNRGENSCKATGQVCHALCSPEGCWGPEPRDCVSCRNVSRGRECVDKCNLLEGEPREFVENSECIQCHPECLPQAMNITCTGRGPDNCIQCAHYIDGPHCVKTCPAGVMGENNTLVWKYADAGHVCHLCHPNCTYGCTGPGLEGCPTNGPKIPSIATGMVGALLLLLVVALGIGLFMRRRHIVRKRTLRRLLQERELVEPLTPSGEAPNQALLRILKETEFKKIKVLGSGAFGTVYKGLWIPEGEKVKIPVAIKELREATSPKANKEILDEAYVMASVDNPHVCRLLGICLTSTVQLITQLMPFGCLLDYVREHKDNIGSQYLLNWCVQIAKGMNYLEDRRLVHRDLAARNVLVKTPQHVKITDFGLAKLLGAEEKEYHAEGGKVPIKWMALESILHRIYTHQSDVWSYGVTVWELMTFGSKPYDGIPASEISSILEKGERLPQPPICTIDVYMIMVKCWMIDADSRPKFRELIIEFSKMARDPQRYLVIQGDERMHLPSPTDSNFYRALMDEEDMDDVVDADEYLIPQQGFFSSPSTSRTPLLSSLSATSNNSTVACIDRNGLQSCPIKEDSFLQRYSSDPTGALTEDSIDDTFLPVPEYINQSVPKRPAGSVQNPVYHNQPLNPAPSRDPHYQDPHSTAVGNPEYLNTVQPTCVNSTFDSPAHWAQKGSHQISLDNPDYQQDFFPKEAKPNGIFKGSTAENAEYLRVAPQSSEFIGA
Experimental: as §2

[3] = target: BAF3 EGFR DEL T790M PURO POOL (Homo sapiens, UniProt P00533, DEL746-750/T790M, cells depend on it); assay: Cell proliferation (MTT), BAF3 EGFR DEL T790M; type: cell-based
Chain of BAF3 EGFR DEL T790M PURO POOL (P00533 with tags, fused parts or gaps DEL746-750/T790M): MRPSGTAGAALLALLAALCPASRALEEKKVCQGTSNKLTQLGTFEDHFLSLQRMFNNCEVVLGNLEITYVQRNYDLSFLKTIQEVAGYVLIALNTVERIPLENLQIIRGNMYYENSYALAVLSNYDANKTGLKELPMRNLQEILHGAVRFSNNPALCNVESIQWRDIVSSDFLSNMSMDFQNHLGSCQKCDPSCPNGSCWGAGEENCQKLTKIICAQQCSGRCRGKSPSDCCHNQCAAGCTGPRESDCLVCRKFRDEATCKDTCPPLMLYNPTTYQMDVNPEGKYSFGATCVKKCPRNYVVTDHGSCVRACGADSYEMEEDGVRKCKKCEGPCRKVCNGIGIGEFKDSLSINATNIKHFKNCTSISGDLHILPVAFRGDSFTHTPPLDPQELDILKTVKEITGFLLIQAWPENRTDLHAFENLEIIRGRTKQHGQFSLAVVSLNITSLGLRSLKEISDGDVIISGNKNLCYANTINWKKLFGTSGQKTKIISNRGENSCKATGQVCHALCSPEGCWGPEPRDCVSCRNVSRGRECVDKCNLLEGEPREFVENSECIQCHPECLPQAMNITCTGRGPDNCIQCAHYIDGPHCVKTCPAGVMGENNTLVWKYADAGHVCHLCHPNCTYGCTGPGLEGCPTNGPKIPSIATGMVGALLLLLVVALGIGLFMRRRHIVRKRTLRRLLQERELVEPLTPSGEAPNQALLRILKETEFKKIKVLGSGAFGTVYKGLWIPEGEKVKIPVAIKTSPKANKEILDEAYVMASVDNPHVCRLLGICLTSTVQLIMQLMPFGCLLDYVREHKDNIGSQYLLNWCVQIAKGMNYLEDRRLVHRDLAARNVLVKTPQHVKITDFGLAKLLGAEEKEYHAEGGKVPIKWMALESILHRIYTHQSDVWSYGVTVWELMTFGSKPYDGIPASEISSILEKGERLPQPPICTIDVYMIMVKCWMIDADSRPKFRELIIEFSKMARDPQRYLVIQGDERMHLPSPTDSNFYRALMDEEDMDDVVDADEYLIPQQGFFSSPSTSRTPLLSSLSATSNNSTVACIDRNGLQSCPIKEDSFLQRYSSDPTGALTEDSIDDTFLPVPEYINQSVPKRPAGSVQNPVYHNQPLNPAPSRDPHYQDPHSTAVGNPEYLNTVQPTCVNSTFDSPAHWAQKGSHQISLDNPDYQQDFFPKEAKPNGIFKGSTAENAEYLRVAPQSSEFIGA
Experimental: as §1

[4] = target: EGFR bearing the L858R mution (Homo sapiens, UniProt P00533, L858R); assay: Kinase inhibition, EGFR L858R; type: biochemical; settings: 10 μM ATP; 10 pt curves, 3 μM top concentration (singlicates)
Chain of EGFR bearing the L858R mution (P00533 25-1210 L858R): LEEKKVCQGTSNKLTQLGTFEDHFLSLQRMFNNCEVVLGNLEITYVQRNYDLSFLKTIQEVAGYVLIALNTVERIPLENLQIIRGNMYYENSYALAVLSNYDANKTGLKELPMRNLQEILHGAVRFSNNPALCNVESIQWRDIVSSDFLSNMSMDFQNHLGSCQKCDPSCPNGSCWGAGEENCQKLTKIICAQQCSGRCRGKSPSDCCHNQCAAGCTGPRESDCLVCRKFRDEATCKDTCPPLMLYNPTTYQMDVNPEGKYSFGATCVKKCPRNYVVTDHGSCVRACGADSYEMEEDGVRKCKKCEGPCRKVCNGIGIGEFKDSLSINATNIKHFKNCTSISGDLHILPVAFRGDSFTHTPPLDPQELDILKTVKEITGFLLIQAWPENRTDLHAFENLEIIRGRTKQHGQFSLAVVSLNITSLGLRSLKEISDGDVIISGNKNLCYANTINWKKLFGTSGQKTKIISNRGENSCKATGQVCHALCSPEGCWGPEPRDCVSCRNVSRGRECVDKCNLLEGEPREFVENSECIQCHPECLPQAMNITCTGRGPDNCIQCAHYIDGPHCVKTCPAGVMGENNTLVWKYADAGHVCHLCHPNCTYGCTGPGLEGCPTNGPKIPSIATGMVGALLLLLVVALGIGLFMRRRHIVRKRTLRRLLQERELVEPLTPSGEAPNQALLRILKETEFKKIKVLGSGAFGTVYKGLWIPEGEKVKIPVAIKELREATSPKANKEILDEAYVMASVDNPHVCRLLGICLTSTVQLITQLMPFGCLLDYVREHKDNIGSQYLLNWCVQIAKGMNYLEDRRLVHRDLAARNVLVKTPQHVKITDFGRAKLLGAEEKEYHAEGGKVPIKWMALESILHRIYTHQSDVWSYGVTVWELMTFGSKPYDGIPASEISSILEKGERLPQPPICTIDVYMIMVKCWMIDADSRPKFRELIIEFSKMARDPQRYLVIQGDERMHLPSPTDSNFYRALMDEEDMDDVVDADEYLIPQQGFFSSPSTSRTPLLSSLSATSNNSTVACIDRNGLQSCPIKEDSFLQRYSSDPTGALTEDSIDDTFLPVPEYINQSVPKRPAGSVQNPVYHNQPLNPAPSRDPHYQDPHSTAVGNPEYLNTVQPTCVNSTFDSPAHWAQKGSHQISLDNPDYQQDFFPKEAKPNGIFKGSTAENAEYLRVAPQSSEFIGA
Experimental: as §2

[5] = system: BAF3 EGFR L858R-T790M PURO POOL; assay: Cell proliferation (MTT), BAF3 EGFR L858R-T790M; type: cell-based; settings: Ba/F3 EGFR
Experimental: as §1

Row | Structure (SMILES) | IC50 [1] [nM] | IC50 [2] [nM] | IC50 [3] [nM] | IC50 [4] [nM] | IC50 [5] [nM] | IC50 (BAF3 PARENTAL) [nM]
1 | C=CC(=O)N[C@@H]1CCC[C@@H](Nc2ncc(Cl)c(Nc3ccccc3P(C)(C)=O)n2)C1 (racemic) [Example 42, rac-N-((1R,3R)-3-((5-chloro-4-((2-(dimethylphosphoryl)phenyl)amino)pyrimidin-2-yl)amino)cyclohexyl)acrylamide] | ≥ 250 | ≥ 250 | ≥ 250 | ≥ 250 | – | ≥ 250
2 | C=CC(=O)Nc1cc(Nc2ncc(Cl)c(Nc3ccccc3P(C)(C)=O)n2)c(OC)cc1O[C@@H](COC)CN(CC)CC (stereo in doubt) [Example 29, rac-(R)—N-(5-((5-chloro-4-((2-(dimethylphosphoryl)phenyl)amino)pyrimidin-2-yl)amino)-2-((1-(diethylamino)-3-methoxypropan-2-yl)oxy)-4-methoxyphenyl)acrylamide] | < 51 | < 51 | < 51 | < 51 | < 51 | ≥ 250
3 | C=CC(=O)Nc1cc(Nc2ncc(Cl)c(Nc3ccccc3P(C)(C)=O)n2)c(OC)cc1O[C@H](COC)CN(CC)CC (stereo in doubt) [Example 30, rac-(R)—N-(5-((5-chloro-4-((2-(dimethylphosphoryl)phenyl)amino)pyrimidin-2-yl)amino)-2-((1-(diethylamino)-3-methoxypropan-2-yl)oxy)-4-methoxyphenyl)acrylamide] | < 51 | < 51 | < 51 | < 51 | < 51 | ≥ 250
4 | C=CC(=O)N[C@H]1CCC[C@@H](Nc2ncc(Cl)c(Nc3ccccc3P(C)(C)=O)n2)C1 (stereo in doubt) [Example 43, N-(3-((5-chloro-4-((2-(dimethylphosphoryl)phenyl)amino)pyrimidin-2-yl)amino)cyclohexyl)acrylamide] | ≥ 250 | ≥ 250 | ≥ 250 | ≥ 250 | – | ≥ 250
5 | C=CC(=O)Nc1ccc(OC)c(Nc2ncc(Cl)c(Nc3ccccc3P(C)(C)=O)n2)c1 [Example 1, N-(3-((5-chloro-4-((2-(dimethylphosphoryl)phenyl)amino)pyrimidin-2-yl)amino)-4-methoxyphenyl)acrylamide] | < 51 | 51 to 100 | < 51 | < 51 | < 51 | ≥ 250
6 | COc1ccc(NC(=O)/C=C/CN(C)C)cc1Nc1ncc(Cl)c(Nc2ccccc2P(C)(C)=O)n1 [Example 2, (E)-N-(3-((5-chloro-4-((2-(dimethylphosphoryl)phenyl)amino)pyrimidin-2-yl)amino)-4-methoxyphenyl)-4-(dimethylamino)but-2-enamide] | < 51 | 101 to 250 | < 51 | < 51 | 51 to 100 | ≥ 250
7 | COc1ccc(NC(=O)/C=C/CN2CCOCC2)cc1Nc1ncc(Cl)c(Nc2ccccc2P(C)(C)=O)n1 [Example 3, (E)-N-(3-((5-chloro-4-((2-(dimethylphosphoryl)phenyl)amino)pyrimidin-2-yl)amino)-4-methoxyphenyl)-4-morpholinobut-2-enamide] | 51 to 100 | ≥ 250 | – | < 51 | – | ≥ 250
8 | COc1ccc(NC(=O)/C=C/CN2CCN(C)CC2)cc1Nc1ncc(Cl)c(Nc2ccccc2P(C)(C)=O)n1 [Example 4, (E)-N-(3-((5-chloro-4-((2-(dimethylphosphoryl)phenyl)amino)pyrimidin-2-yl)amino)-4-methoxyphenyl)-4-(4-methylpiperazin-1-yl)but-2-enamide] | 101 to 250 | ≥ 250 | ≥ 250 | < 51 | – | ≥ 250
9 | C=CS(=O)(=O)Nc1ccc(OC)c(Nc2ncc(Cl)c(Nc3ccccc3P(C)(C)=O)n2)c1 [Example 7, N-(3-((5-chloro-4-((2-(dimethylphosphoryl)phenyl)amino)pyrimidin-2-yl)amino)-4-methoxyphenyl)ethenesulfonamide] | < 51 | < 51 | – | < 51 | – | ≥ 250
10 | C=CC(=O)Nc1cccc(Oc2nc(Nc3ccc(P(C)(C)=O)cc3OC)ncc2Cl)c1 [Example 9, N-(3-((5-chloro-2-((4-(dimethylphosphoryl)-2-methoxyphenyl)amino)pyrimidin-4-yl)oxy)phenyl)acrylamide] | < 51 | 101 to 250 | 51 to 100 | < 51 | 51 to 100 | ≥ 250
11 | COc1ccc(NC(=O)C2(C)CO2)cc1Nc1ncc(Cl)c(Nc2ccccc2P(C)(C)=O)n1 (centres unmarked) [Example 10, N-(3-((5-chloro-4-((2-(dimethylphosphoryl)phenyl)amino)pyrimidin-2-yl)amino)-4-methoxyphenyl)-2-methyloxirane-2-carboxamide] | < 51 | < 51 | < 51 | < 51 | < 51 | ≥ 250
12 | C=CC(=O)Nc1ccc(OC)c(Nc2ncc(F)c(Nc3ccccc3P(C)(C)=O)n2)c1 [Example 11, N-(3-((4-((2-(dimethylphosphoryl)phenyl)amino)-5-fluoropyrimidin-2-yl)amino)-4-methoxyphenyl)acrylamide] | < 51 | 101 to 250 | 51 to 100 | < 51 | 101 to 250 | ≥ 250
13 | C=C(CNc1ccc(OC)c(Nc2ncc(Cl)c(Nc3ccccc3P(C)(C)=O)n2)c1)C(=O)OC [Example 16, methyl 2-(((3-((5-chloro-4-((2-(dimethylphosphoryl)phenyl)amino)pyrimidin-2-yl)amino)-4-methoxyphenyl)amino)methyl)acrylate] | 101 to 250 | ≥ 250 | – | < 51 | – | ≥ 250
14 | C=CC(=O)Nc1ccc(OC)c(Nc2nc(Nc3ccccc3P(C)(C)=O)c3c(F)c[nH]c3n2)c1 [Example 23, N-(3-((4-((2-(dimethylphosphoryl)phenyl)amino)-5-fluoro-7H-pyrrolo[2,3-d]pyrimidin-2-yl)amino)-4-methoxyphenyl)acrylamide] | 101 to 250 | ≥ 250 | ≥ 250 | ≥ 250 | – | ≥ 250
15 | C=CC(=O)Nc1ccc(Nc2ncc(Cl)c(Nc3ccccc3P(C)(C)=O)n2)c(OC)c1 [Example 45, N-(4-((5-chloro-4-((2-(dimethylphosphoryl)phenyl)amino)pyrimidin-2-yl)amino)-3-methoxyphenyl)acrylamide] | ≥ 250 | ≥ 250 | ≥ 250 | 101 to 250 | – | ≥ 250

The next lines start with results.

Row | IC50 [1] [nM] | IC50 [2] [nM] | IC50 [3] [nM] | IC50 [4] [nM] | IC50 [5] [nM] | Structure (SMILES) | IC50 (BAF3 PARENTAL) [nM]
16 | ≥ 250 | – | ≥ 250 | ≥ 250 | – | C/C=C/C(=O)Nc1ccc(OC)c(Nc2ncc(Cl)c(Nc3ccccc3P(C)(C)=O)n2)c1 [Example 5a, (E)-N-(3-((5-chloro-4-((2-(dimethylphosphoryl)phenyl)amino)pyrimidin-2-yl)amino)-4-methoxyphenyl)but-2-enamide] | ≥ 250
17 | ≥ 250 | – | ≥ 250 | ≥ 250 | – | COc1ccc(NC(=O)C=C(C)C)cc1Nc1ncc(Cl)c(Nc2ccccc2P(C)(C)=O)n1 [Example 5b, N-(3-((5-chloro-4-((2-(dimethylphosphoryl)phenyl)amino)pyrimidin-2-yl)amino)-4-methoxyphenyl)-3-methylbut-2-enamide] | ≥ 250
18 | ≥ 250 | ≥ 250 | 101 to 250 | ≥ 250 | ≥ 250 | C=C(C)C(=O)Nc1ccc(OC)c(Nc2ncc(Cl)c(Nc3ccccc3P(C)(C)=O)n2)c1 [Example 5c, N-(3-((5-chloro-4-((2-(dimethylphosphoryl)phenyl)amino)pyrimidin-2-yl)amino)-4-methoxyphenyl)methacrylamide] | ≥ 250
19 | < 51 | 101 to 250 | < 51 | < 51 | < 51 | C=CC(=O)Nc1cccc(Nc2ncc(Cl)c(Nc3ccccc3P(C)(C)=O)n2)c1 [Example 5d, N-(3-((5-chloro-4-((2-(dimethylphosphoryl)phenyl)amino)pyrimidin-2-yl)amino)phenyl)acrylamide] | 51 to 100
20 | < 51 | < 51 | ≥ 250 | < 51 | – | C#CC(=O)Nc1ccc(OC)c(Nc2ncc(Cl)c(Nc3ccccc3P(C)(C)=O)n2)c1 [Example 6a, N-(3-((5-chloro-4-((2-(dimethylphosphoryl)phenyl)amino)pyrimidin-2-yl)amino)-4-methoxyphenyl)propiolamide] | ≥ 250
21 | ≥ 250 | ≥ 250 | < 51 | 51 to 100 | 51 to 100 | CC#CC(=O)Nc1ccc(OC)c(Nc2ncc(Cl)c(Nc3ccccc3P(C)(C)=O)n2)c1 [Example 6b, N-(3-((5-chloro-4-((2-(dimethylphosphoryl)phenyl)amino)pyrimidin-2-yl)amino)-4-methoxyphenyl)but-2-ynamide] | ≥ 250
